Results published in patent publication EP0339465A2, “Antibacterial composition for oral administration” (MEIJI SEIKA KAISHA LTD., priority 1988, dated 1989).

Assay: Stability in aqueous solution
Assay type: physicochemical
Conditions: aqueous solution of a pH value of 6 or above

stability in an aqueous solution: unstable
Structure (SMILES): CO/N=C(\C(=O)N[C@@H]1C(=O)N2C(C(=O)OCOC(=O)C(C)(C)C)=C(/C=C\c3scnc3C)CS[C@H]12)c1csc(N)n1 [substance ME1207, pivaloyloxymethyl-(6R,7R)-7[(Z)-2-(2-aminothiazol-4-yl)-2-methoxyiminoacetamide]-3-[(Z)-2-(4-methylthiazol-5-yl)ethenyl]cephem-4-carboxylate]
